Reference: the NIST ThermoML archive (doi:10.1016/j.fluid.2008.01.030)
± gives the expanded uncertainty stated by the source.

Conditions: Liquid, Closed cell (Static) method

C/C=C\C [(Z)-2-butene]
vapor or sublimation pressure (312.59 K): 332.2 ± 1.9 kPa

C=CCC [1-butene]
vapor or sublimation pressure (312.57 K): 454.5 ± 2.3 kPa

C/C=C/C [(E)-2-butene]
vapor or sublimation pressure (317.29 K): 413.8 ± 2.2 kPa

CC(C)C [2-methylpropane]
vapor or sublimation pressure (307.86 K): 459.8 ± 2.3 kPa

CCCC [butane]
vapor or sublimation pressure (317.47 K): 425.7 ± 2.1 kPa

C=C(C)C [2-methylpropene]
vapor or sublimation pressure (312.6 K): 465.3 ± 2.3 kPa

CSC [2-thiapropane]
vapor or sublimation pressure (307.86 K): 91.7 ± 1.3 kPa | vapor or sublimation pressure (312.58 K): 107.7 ± 1.3 kPa | vapor or sublimation pressure (312.59 K): 106.2 ± 1.3 kPa | vapor or sublimation pressure (312.6 K): 107.4 ± 1.3 kPa | vapor or sublimation pressure (317.32 K): 126 ± 1.3 kPa | vapor or sublimation pressure (317.35 K): 126 ± 1.3 kPa
